For this series the following is noted: Crystal; DTA.

Each structure is given as a SMILES string. ± gives the expanded uncertainty stated by the source.

Turning to `CC(C)CCC[C@@H](C)[C@H]1CC[C@H]2[C@@H]3CC=C4C[C@@H](OC(=O)c5ccccc5)CC[C@]4(C)[C@H]3CC[C@]12C` [3β-benzoyloxycholest-5-ene], the Normal melting temperature was 150 ± 1 °C.

For `CCCC(=O)O[C@H]1CC[C@@]2(C)C(=CC[C@H]3[C@@H]4CC[C@H]([C@H](C)CCCC(C)C)[C@@]4(C)CC[C@@H]32)C1` [3β-butanoyloxycholest-5-ene], the Normal melting temperature worked out at 99 ± 1 °C.

These data come from the NIST ThermoML archive (doi:10.1016/j.fluid.2008.07.012).
